Where two headings read alike, the source gives them in different places.
Key:
Format in all cases: cell-based
A. niger IMI 149007 = assay: Microstatic activity, MIC in tryptone soy broth; conditions: Aspergillus niger, IMI149007, 120 h, 25° C., 5 days
Summary of the method: (§1)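 Diols dissolved at 40 wt% in propylene glycol at 60 °C, diluted in tryptone soy broth to 400 000–3125 ppm, then inoculated (0.1 ml organism per 5 ml). Bacteria incubated 48 h at 30 °C, fungi 5 days at 25 °C. MIC taken as a range between the last concentration showing visible growth/clouding and the first without.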

C. albicans NCPF 3179 = assay: Microstatic activity, MIC in tryptone soy broth; conditions: 25° C., 5 days; for MIC: Candida albicans, NCPF3179, 120 h
Summary of the method: as §1

E. coli NCIMB 8545 = assay: Microstatic activity, MIC in tryptone soy broth; conditions: Escherichia coli, NCIMB8545, 30° C., 48 hours
Summary of the method: as §1

[1] = test system: P. aeruginosa NCIMB 10421; assay: Microstatic activity, MIC in tryptone soy broth; conditions: Pseudomonas aeruginosa, NCIMB10421, 30° C., 48 hours, lower limit of MIC range, read-out: MIC value (ppm of diol), from
Summary of the method: as §1

P. vulgaris NCIMB 4175 = assay: Microstatic activity, MIC in tryptone soy broth; conditions: Proteus vulgaris, NCIMB4175, 30° C., 48 hours
Summary of the method: as §1

S. aureus NCIMB 9578 = assay: Microstatic activity, MIC in tryptone soy broth; conditions: Staphylococcus aureus, NCIMB9578, 30° C., 48 hours
Summary of the method: as §1

[2] = test system: series of tested microorganisms (bacteria and fungi); assay: Microstatic activity, highest MIC from the series of tested microorganisms; conditions: highest measured MIC from the series of tested microorganisms; lower limit; read-out: Maximum MIC value (ppm of diol), from
Summary of the method: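 Diol tested for biocidal effect against a panel of bacteria and fungi; MIC taken as lowest concentration visibly hindering growth versus diol-free sample. Each MIC is a range between the next higher positive-test concentration and the first negative-test concentration; the series value is the highest MIC across organisms.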

A. niger ATCC 16404 [3] = assay: Preservation stress test, example formulation 1 (standard emulsion O/W); conditions: 1% active substance
Summary of the method: (§2)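 O/W emulsion containing 1% diol (water as placebo), inoculated individually or as mixed culture at 10^5-10^6 CFU/g and held 28 d at 20-25° C. Surviving counts at 0, 2, 7, 14 and 28 d after dilution in neutralising phosphate buffer pH 7.4 with Tween 80/lecithin; expressed as log reduction from initial count.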

C. albicans ATCC 10231 = assay: as above; conditions: 1% active substance
Summary of the method: as §2

A. niger ATCC 16404 [4] = assay: Preservation stress test, example formulation 2 (roll-on deodorant formulation); conditions: 1% active substance
Method: (§3) Preservation stress tests (PSTs) were carried out in order to determine the preserving activity of the diols. In the preservation stress test, this is simulated through artificial loadings with microorganisms. These can either be inoculated as mixed population or individually in mixtures independent of one another. The inoculated product samples are incubated under defined conditions and, after defined times, samples are taken in order to determine the germ loading. In the case of adequate preservation, the number of microorganisms should, depending on the type, either decrease or remain constant in order to satisfy the requirements specified, e.g. in Ph. Eur. 6.0. To investigate the preserving effect of the diols, application-typical amounts of the diols were incorporated into example formulations. […] [table] These example formulations were used to prepare various mixtures which each comprised 1% active substance or comprised water instead of the active substance as placebo mixtures. These mixtures were in each case inoculated with the test germs such that a germ loading of 10^5-10^6 CFU/g was present in the test mixture. The bacteria were either used individually for the inoculation or as a mixed culture. To determine the starting germ count, immediately after inoculation, an aliquot was taken, diluted in dilution medium (phosphate buffer, 0.07 molar pH 7.4 (+/−0.2), with 1% Tween 80+0.3% soya lecithin), and the surviving germ count was determined in the dilution stages 10^−1 to 10^−3. The inoculated product samples then incubated for a total of 28 d at 20-25° C. After 2 d, 7 d, 14 d and after 28 d, aliquots were taken and diluted in dilution medium (phosphate buffer, 0.07 molar pH 7.4 (+/−0.2), with 1% Tween 80+0.3% soya lecithin). The surviving germ counts were determined in the dilution stages 10^−1 to 10^−4. The reference point taken for determining the reduction in germ count was the respective initial value of the sample. The results were given as logarithmic reductions.

E. coli ATCC 10536 = assay: as above; conditions: 1% active substance
Method: as §3

S. aureus ATCC 6538 = assay: as above; conditions: 1% active substance
Method: as §3

[5] = lower limit of MIC range, read-out: MIC value (ppm of diol), from
[6] = upper limit of MIC range, read-out: MIC value (ppm of diol), to

SMILES | MIC (A. niger IMI 149007; [5]) | MIC (A. niger IMI 149007; [6]) | MIC (C. albicans NCPF 3179; [6]) | MIC (E. coli NCIMB 8545; [5]) | MIC (E. coli NCIMB 8545; [6]) | MIC [1] | MIC (P. vulgaris NCIMB 4175; [5]) | MIC (P. vulgaris NCIMB 4175; [6]) | MIC (S. aureus NCIMB 9578; [5]) | MIC (S. aureus NCIMB 9578; [6]) | MIC [2] | Microbicidal activity given as logarithmic reduction in germ count (A. niger ATCC 16404 [3]; 48 h) | Microbicidal activity given as logarithmic reduction in germ count (A. niger ATCC 16404 [3]; 7 d) | Microbicidal activity given as logarithmic reduction in germ count (A. niger ATCC 16404 [3]; 14 d) | Microbicidal activity given as logarithmic reduction in germ count (A. niger ATCC 16404 [3]; 28 d) | Microbicidal activity given as logarithmic reduction in germ count (C. albicans ATCC 10231; 48 h) | Microbicidal activity given as logarithmic reduction in germ count (C. albicans ATCC 10231; 7 d) | Microbicidal activity given as logarithmic reduction in germ count (C. albicans ATCC 10231; 14 d) | Microbicidal activity given as logarithmic reduction in germ count (C. albicans ATCC 10231; 28 d) | Microbicidal activity given as logarithmic reduction in germ count (A. niger ATCC 16404 [4]; 48 h) | further results
CCCCCCCCC(C)(CO)CO [OMPD, 2-octyl-2-methylpropane-1,3-diol] | > 3120 µg/mL | ≤ 6250 µg/mL | ≤ 3120 µg/mL | > 50 mg/mL | ≤ 100 mg/mL | > 100 mg/mL | > 50 mg/mL | ≤ 100 mg/mL | > 25 mg/mL | ≤ 50 mg/mL | > 100 mg/mL | 0 log. Red. | 0 log. Red. | 1 log. Red. | 1 log. Red. | ≧3 log. Red. | 5 log. Red. | 5 log. Red. | 5 log. Red. | 0 log. Red. | MIC value (ppm of diol), from (C. albicans NCPF 3179; lower limit of MIC range): >0 ppm; Microbicidal activity given as logarithmic reduction in germ count (A. niger ATCC 16404 [4]; 7 d): 0 log. Red.; Microbicidal activity given as logarithmic reduction in germ count (A. niger ATCC 16404 [4]; 14 d): 0 log. Red.; Microbicidal activity given as logarithmic reduction in germ count (E. coli ATCC 10536; 48 h): 0 log. Red.; Microbicidal activity given as logarithmic reduction in germ count (E. coli ATCC 10536; 7 d): ≧3 log. Red.; Microbicidal activity given as logarithmic reduction in germ count (E. coli ATCC 10536; 14 d): 5 log. Red.; Microbicidal activity given as logarithmic reduction in germ count (E. coli ATCC 10536; 28 d): 5 log. Red.; Microbicidal activity given as logarithmic reduction in germ count (S. aureus ATCC 6538; 48 h): ≧3 log. Red.; Microbicidal activity given as logarithmic reduction in germ count (S. aureus ATCC 6538; 7 d): 5 log. Red.; Microbicidal activity given as logarithmic reduction in germ count (S. aureus ATCC 6538; 14 d): 5 log. Red.; Microbicidal activity given as logarithmic reduction in germ count (S. aureus ATCC 6538; 28 d): 5 log. Red.
CCCCCC(CO)(CO)CCC [PPPD, 2-pentyl-2-propylpropane-1,3-diol] | > 6250 µg/mL | ≤ 12500 µg/mL | ≤ 12500 µg/mL | > 50 mg/mL | ≤ 100 mg/mL | > 100 mg/mL | > 25 mg/mL | ≤ 50 mg/mL | > 50 mg/mL | ≤ 100 mg/mL | > 100 mg/mL | 0 log. Red. | 1 log. Red. | 1 log. Red. | 1 log. Red. | ≧3 log. Red. | 5 log. Red. | 5 log. Red. | 5 log. Red. | 0 log. Red. | MIC (C. albicans NCPF 3179; [5]): > 6250 µg/mL; Microbicidal activity given as logarithmic reduction in germ count (A. niger ATCC 16404 [4]; 7 d): 0 log. Red.; Microbicidal activity given as logarithmic reduction in germ count (A. niger ATCC 16404 [4]; 14 d): 0 log. Red.; Microbicidal activity given as logarithmic reduction in germ count (E. coli ATCC 10536; 48 h): ≧3 log. Red.; Microbicidal activity given as logarithmic reduction in germ count (E. coli ATCC 10536; 7 d): 5 log. Red.; Microbicidal activity given as logarithmic reduction in germ count (E. coli ATCC 10536; 14 d): 5 log. Red.; Microbicidal activity given as logarithmic reduction in germ count (E. coli ATCC 10536; 28 d): 5 log. Red.; Microbicidal activity given as logarithmic reduction in germ count (S. aureus ATCC 6538; 48 h): 5 log. Red.; Microbicidal activity given as logarithmic reduction in germ count (S. aureus ATCC 6538; 7 d): 5 log. Red.; Microbicidal activity given as logarithmic reduction in germ count (S. aureus ATCC 6538; 14 d): 5 log. Red.; Microbicidal activity given as logarithmic reduction in germ count (S. aureus ATCC 6538; 28 d): 5 log. Red.

— patent publication US20120152149A1, “USE OF 1,3-DIOLS AS BIOCIDES” (BASF SE, priority 2009, published 2012)
